PubChem BioAssay (NCI)
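Exposure lasted 48 hours, with cells grown in 96-well plates and compounds tested at five concentrations. Abbreviation: GI50, concentration required for 50% inhibition of growth. TGI: concentration producing complete growth inhibition.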

Columns and labels:
Assay in all cases: NCI tumour cell line growth inhibition, 48 h
786-0 renal = test system: 786-0 renal
SF-539 CNS = test system: SF-539 CNS
NCI-H226 lung = test system: NCI-H226 lung
DU-145 prostate = test system: DU-145 prostate
K-562 leukemia = test system: K-562 leukemia
ACHN renal = test system: ACHN renal
LOX IMVI melanoma = test system: LOX IMVI melanoma
NCI-H23 lung = test system: NCI-H23 lung
EKVX NSCLC = test system: EKVX NSCLC
MDA-MB-468 breast = test system: MDA-MB-468 breast
NCI/ADR-RES ovarian = test system: NCI/ADR-RES ovarian
HL-60(TB) leukemia = test system: HL-60(TB) leukemia
SK-MEL-2 melanoma = test system: SK-MEL-2 melanoma
SK-MEL-28 melanoma = test system: SK-MEL-28 melanoma
M14 melanoma = test system: M14 melanoma
MALME-3M melanoma = test system: MALME-3M melanoma
NCI-H460 lung = test system: NCI-H460 lung
CAKI-1 renal = test system: CAKI-1 renal
UACC-257 melanoma = test system: UACC-257 melanoma
HCT-116 colon = test system: HCT-116 colon
IGROV1 ovarian = test system: IGROV1 ovarian
HCC-2998 colon = test system: HCC-2998 colon
HT29 colon = test system: HT29 colon
SN12C renal = test system: SN12C renal
SNB-75 CNS = test system: SNB-75 CNS
RXF 393 renal = test system: RXF 393 renal
HS 578T breast = test system: HS 578T breast
HCT-15 colon = test system: HCT-15 colon
OVCAR-8 ovarian = test system: OVCAR-8 ovarian
KM12 colon = test system: KM12 colon
HOP-62 NSCLC = test system: HOP-62 NSCLC
MCF7 breast = test system: MCF7 breast
UO-31 renal = test system: UO-31 renal
MOLT-4 leukemia = test system: MOLT-4 leukemia
SK-OV-3 ovarian = test system: SK-OV-3 ovarian
COLO 205 colon = test system: COLO 205 colon
SK-MEL-5 melanoma = test system: SK-MEL-5 melanoma
NCI-H522 lung = test system: NCI-H522 lung
RPMI-8226 leukemia = test system: RPMI-8226 leukemia
MDA-MB-435 = test system: MDA-MB-435
MDA-MB-231 breast = test system: MDA-MB-231 breast
T-47D breast = test system: T-47D breast
UACC-62 melanoma = test system: UACC-62 melanoma
TK-10 renal = test system: TK-10 renal
A549 NSCLC = test system: A549 NSCLC
PC-3 prostate = test system: PC-3 prostate
SF-295 CNS = test system: SF-295 CNS
BT-549 breast = test system: BT-549 breast
SR leukemia = test system: SR leukemia
OVCAR-3 ovarian = test system: OVCAR-3 ovarian
OVCAR-5 ovarian = test system: OVCAR-5 ovarian
SW-620 colon = test system: SW-620 colon
HOP-92 NSCLC = test system: HOP-92 NSCLC
A498 renal = test system: A498 renal
CCRF-CEM leukemia = test system: CCRF-CEM leukemia
SF-268 CNS = test system: SF-268 CNS
SNB-19 CNS = test system: SNB-19 CNS
U251 CNS = test system: U251 CNS

## O=C(CS(=O)(=O)c1oc(-c2ccc(Cl)cc2)nc1S(=O)(=O)c1ccccc1)N1CCCC1
786-0 renal
  GI50: 1.51 µM
  TGI: 3.01 µM
SF-539 CNS
  GI50: 1.64 µM
  TGI: 2.99 µM
NCI-H226 lung
  GI50: 15.1 µM
  TGI: 39 µM
DU-145 prostate
  GI50: 1.76 µM
  TGI: 3.37 µM
K-562 leukemia
  GI50: 0.707 µM
  TGI: > 100 µM
ACHN renal
  GI50: 1.52 µM
  TGI: 2.85 µM
LOX IMVI melanoma
  GI50: 1.49 µM
  TGI: 2.86 µM
NCI-H23 lung
  GI50: 11.4 µM
  TGI: 26.8 µM
EKVX NSCLC
  GI50: 2.03 µM
  TGI: 4.9 µM
MDA-MB-468 breast
  GI50: 1.08 µM
  TGI: 2.49 µM
NCI/ADR-RES ovarian
  GI50: 15.9 µM
  TGI: 70.5 µM
HL-60(TB) leukemia
  GI50: 1.31 µM
  TGI: > 100 µM
SK-MEL-2 melanoma
  GI50: 15 µM
  TGI: 29 µM
SK-MEL-28 melanoma
  GI50: 3.58 µM
  TGI: 12.5 µM
M14 melanoma
  GI50: 1.88 µM
  TGI: 4.07 µM
MALME-3M melanoma
  GI50: 1.69 µM
  TGI: 3.09 µM
NCI-H460 lung
  GI50: 12.3 µM
  TGI: 26.3 µM
CAKI-1 renal
  GI50: 1.41 µM
  TGI: 2.75 µM
UACC-257 melanoma
  GI50: 1.88 µM
  TGI: 3.62 µM
HCT-116 colon
  GI50: 1.81 µM
  TGI: 4.07 µM
IGROV1 ovarian
  GI50: 13.1 µM
  TGI: 29.3 µM
HCC-2998 colon
  GI50: 14.5 µM
  TGI: 28.7 µM
HT29 colon
  GI50: 2.07 µM
  TGI: 5.07 µM
SN12C renal
  GI50: 12 µM
  TGI: 24.9 µM
SNB-75 CNS
  GI50: 10.1 µM
  TGI: 23 µM
RXF 393 renal
  GI50: 1.36 µM
  TGI: 2.79 µM
HS 578T breast
  GI50: 7.21 µM
  TGI: 53.9 µM
HCT-15 colon
  GI50: 1.43 µM
  TGI: 2.99 µM
OVCAR-8 ovarian
  GI50: 11.2 µM
  TGI: 33.2 µM
KM12 colon
  GI50: 16.8 µM
  TGI: 33 µM
HOP-62 NSCLC
  GI50: 17.8 µM
  TGI: 34 µM
MCF7 breast
  GI50: 1.47 µM
  TGI: 3.34 µM
UO-31 renal
  GI50: 1.54 µM
  TGI: 2.96 µM
MOLT-4 leukemia
  GI50: 2.38 µM
  TGI: > 100 µM
SK-OV-3 ovarian
  GI50: 18 µM
  TGI: 33 µM
COLO 205 colon
  GI50: 2.14 µM
  TGI: 4.68 µM
SK-MEL-5 melanoma
  GI50: 14.3 µM
  TGI: 27.6 µM
NCI-H522 lung
  GI50: 1.11 µM
  TGI: 2.53 µM
RPMI-8226 leukemia
  GI50: 2.99 µM
  TGI: > 100 µM
MDA-MB-435
  GI50: 2.88 µM
  TGI: 13.6 µM
MDA-MB-231 breast
  GI50: 1.71 µM
  TGI: 3.1 µM
T-47D breast
  GI50: 1.8 µM
  TGI: 4.47 µM
UACC-62 melanoma
  GI50: 3.35 µM
  TGI: 13.6 µM
TK-10 renal
  GI50: 1.75 µM
  TGI: 3.19 µM
A549 NSCLC
  GI50: 14.3 µM
  TGI: 31.6 µM
PC-3 prostate
  GI50: 9.59 µM
  TGI: 27.5 µM
SF-295 CNS
  GI50: 13.4 µM
  TGI: 26.8 µM
BT-549 breast
  GI50: 1.88 µM
  TGI: 3.48 µM
SR leukemia
  GI50: 2.6 µM
  TGI: > 100 µM
OVCAR-3 ovarian
  GI50: 1.29 µM
  TGI: 2.71 µM
OVCAR-5 ovarian
  GI50: 13.7 µM
  TGI: 27.4 µM
SW-620 colon
  GI50: 1.06 µM
  TGI: 2.41 µM
HOP-92 NSCLC
  GI50: 2.38 µM
  TGI: 4.68 µM
A498 renal
  GI50: 14.2 µM
  TGI: 27.3 µM
CCRF-CEM leukemia
  GI50: 0.4 µM
  TGI: 2.36 µM
SF-268 CNS
  GI50: 14.9 µM
  TGI: 43.2 µM
SNB-19 CNS
  GI50: 16 µM
  TGI: 30.5 µM
U251 CNS
  GI50: 15.9 µM
  TGI: 29.8 µM
